Assay results reported in patent US8986733B2, “Materials and methods for nerve repair” (University of Florida Research Foundation, Inc., priority 2001, dated 2015).
Entries after “also recorded” stand apart in the source; their conditions may differ.

Tests used:
[1] = system: embryonic chick DRG neurons; test: Cryoculture assay of nerve explant cultures (predegeneration); type: cell-based; conditions: 2-day, 2% serum culture with GM6001 (50 μM); 68% without
Description: Nerve explant culture for predegeneration experiments. Adult (180-200 gm) female SPRAGUE DAWLEY rats (HARLAN, Indianapolis, Ind.) were used as nerve donors and graft recipients. This project was reviewed and approved by the Institutional Animal Care and Use Committee. Donor rats were deeply anesthetized with isofluorane and decapitated. Sciatic nerves were exposed through a gluteal muscle-splitting incision and isolated free of underlying fascia. A 15-mm nerve segment was excised rostral to the bifurcation into common peroneal and tibial nerves. The segments were rinsed with sterile Ringer's solution and stabilized by pinning the ends to a thin plastic support. […]
Cryoculture bioassay. […] Neurite lengths were measured directly using IMAGE-PRO PLUS software (MEDIA CYBERNETICS, Silver Springs, Md.). At least 250 neurons with neurites greater than one cell body (˜15 μm) were scored for each condition in each experiment.
Freshly excised (cellular) rat sciatic nerve segments were cultured for up to 7 days in medium containing 0, 2 and 10% fetal bovine serum. Control (uncultured) and cultured nerves were cryosectioned and their neurite-promoting activity was assessed by cryoculture assay. […]

[2] = system: cells of cultured nerve segments; test: Dissociation culture (squash preparations) of nerve segments; type: cell-based, rat; conditions: nerve segments cultured 2 days with and without GM6001
[3] = system: MMP gelatinolytic activity; test: In situ zymography of cultured nerve explants; type: biochemical, rat; conditions: nerves cultured 2-day, 2% serum in presence of GM6001
Experimental: In situ zymography for nerve predegeneration experiments. Cryosections (10 μm) of unfixed normal and cultured nerves were mounted on slides and overlaid with reaction buffer (50 mM Tris-HCl, 150 mM NaCl, 5 mM CaCl2, 0.2 mM sodium azide, pH 7.6) containing 20 μg/ml of intramolecularly quenched, fluorescein-labeled gelatin substrate (MOLECULAR PROBES INC., Eugene, Oreg.) (Oh et al., 1999). In the control condition, the MMP inhibitor EDTA (30 mM) was included in the reaction buffer. After incubation for 24 h at 37° C., the sections were rinsed with PBS and fixed with 4% paraformaldehyde in phosphate buffer. The sections were rinsed with water and mounted using Citifluor. Fluorescein-gelatin peptides generated by gelatinolytic activity in the tissue sections were observed and photographed by epifluorescence microscopy.
The activity of MMPs is regulated by gene transcription, proenzyme activation and by the action of tissue inhibitors of metalloproteinases. The net gelatinolytic activity in nerve segments by in situ zymography was examined. Tissue sections were overlaid with quenched, fluorescein-gelatin, which is converted to fluorescent peptides by gelatinolytic activity within tissues. Constitutive gelatinolytic activity was detected in normal nerve mostly associated with Schwann cells aligned along the endoneurial basal lamina (as shown in FIGS. 17A and 17B). […]

## CNC(=O)[C@H](Cc1c[nH]c2ccccc12)NC(=O)[C@@H](CC(=O)NO)CC(C)C [GM6001]
[1]
  increase in neurite length over control nerves for nerves cultured in presence of inhibitor: 14%
[2]
  cell viability (cell outgrowth): no loss of cell viability
[3]
  gelatinolytic activity in treated nerve explants: nearly undetectable; also recorded: markedly decreased
